Results as given in patent US4298610A, “Ester derivatives of quinolopyran-4-one-2-carboxylic acids and antiallergic antasthmatics” (priority 1978, dated 1981).

Assays:
allergic asthma = settings: Cox et al; cited from earlier work
[1] = cited from earlier work
[2] = system: passive cutaneous anaphylaxis; test: passive cutaneous anaphylaxis test (P.C.A.) on rats, oral administration; assay type: in vivo, rat (SLC Wister); settings: 0.5 h, rat, antigen 30 minutes after administration, read-out: Percent inhibition (%)
Protocol: Various 5-hydroxy-quinolopyran-4-one-2-carboxylic acid esters in terms of the R group represented by the general formula [I] were prepared. […] In order to estimate the efficacy of each compound as an anti-allergic antasthmatic, the efficacy was evaluated according to a passive cutaneous anaphylaxis test (P.C.A.) on rats.
To SLC Wister rats were administered intracutaneously egg white albumin recrystallized 5 times and Bodetallapertussis Vaccine, and serum was collected after 13 days from the rats. […] A physiological salt solution in which egg white albumin and a dye (Evans' blue) were dissolved was administered intravenously, 30 minutes after the oral administration, to the rats; and 30 minutes thereafter the back skins of the rats were peeled off. The dye that transuded from the peeled skin was extracted with Na2 SO4 and acetone, and the quantities of the dye were measured by colorimetry at 620 m μ.

[3] = system: passive cutaneous anaphylaxis; test: duration of action in the passive cutaneous anaphylaxis test of the rats, interval between oral administration and antigen varied; assay type: in vivo, rat (SLC Wister); settings: 30 mg/kg
Protocol: To SLC Wister rats were administered intracutaneously egg white albumin recrystallized 5 times and Bodetallapertussis Vaccine, and serum was collected after 13 days from the rats. […] The serum was diluted 128 times and it was then administered intracutaneously to the back of the rats. After 48 hours, the compounds of the present invention in the quantities shown in Table 1 which had been suspended in 1% tragacanth solution were administered orally to the rats. A physiological salt solution in which egg white albumin and a dye (Evans' blue) were dissolved was administered intravenously, 30 minutes after the oral administration, to the rats; and 30 minutes thereafter the back skins of the rats were peeled off. The dye that transuded from the peeled skin was extracted with Na2 SO4 and acetone, and the quantities of the dye were measured by colorimetry at 620 m μ.
In the above-described passive cutaneous anaphylaxis test of the rats, the intervals between the oral administration of the present compounds and the administration of egg white albumin and the dye were variously changed to observe the changes in the effect of the compounds depending upon the intervals.
As a representative compound of the present invention, 2-methyl-1-pentyl ester of 7,8-dimethyl-5-hydroxy-quinolo[4,3-b]pyran-4-one-2-carboxylic acid was used. The percent inhibition is shown in Table 2 when the compound was orally administered in a ratio of 30 mg/kg.

For O=C(O)c1cc(=O)c2c(OCC(O)COc3cccc4oc(C(=O)O)cc(=O)c34)cccc2o1 [disodium cromoglycate], the “effectiveness for allergic asthma” value (allergic asthma) is listed as “effective for allergic asthma” and the “absorption via oral administration” value [1] is listed as “cannot be absorbed via oral administration”.

Cc1ccc2c(nc(O)c3c(=O)cc(C(=O)OCc4ccccc4)oc32)c1C [benzyl ester of 7,8-dimethyl-5-hydroxy-quinolo[4,3-b]pyran-4-one-2-carboxylic acid, reference compound] gave an inhibition in vivo at 100 mg/kg ([2]; 100 mg/kg) of 13.2%.

With CCCC(C)COC(=O)c1cc(=O)c2c(O)nc3ccc(C)cc3c2o1 (stereo not drawn) [2-methyl-1-pentyl ester of 9-methyl-5-hydroxy-quinolo[4,3-b]pyran-4-one-2-carboxylic acid] the inhibition in vivo at 30 mg/kg [2] was 83.8%.

Cc1ccc2c(nc(O)c3c(=O)cc(C(=O)OCC(C)(C)C)oc32)c1C [2,2-dimethyl-1-propyl ester of 7,8-dimethyl-5-hydroxy-quinolo[4,3-b]pyran-4-one-2-carboxylic acid] gave an inhibition in vivo at 30 mg/kg [2] of 93.2%.

Cc1ccc2c(nc(O)c3c(=O)cc(C(=O)OC(C)C(C)(C)C)oc32)c1C (stereo not drawn) [3,3-dimethyl-2-butyl ester of 7,8-dimethyl-5-hydroxy-quinolo[4,3-b]pyran-4-one-2-carboxylic acid, reference compound] showed an inhibition in vivo at 30 mg/kg [2] of 42.7%.

CCCCOC(=O)c1cc(=O)c2c(O)nc3c(C)c(C)ccc3c2o1 [n-butyl ester of 7,8-dimethyl-5-hydroxy-quinolo[4,3-b]pyran-4-one-2-carboxylic acid, reference compound] showed an inhibition in vivo at 30 mg/kg [2] of 48.8%.

In the case of CCOC(=O)c1ccc2nc(O)c3c(=O)cc(C(=O)OCCC(C)C)oc3c2c1 [3-methyl-1-butyl ester of 9-ethoxycarbonyl-5-hydroxy-quinolo[4,3-b]pyran-4-one-2-carboxylic acid], the inhibition in vivo at 30 mg/kg [2] is reported as 52.7%.

Work on Cc1ccc2c(nc(O)c3c(=O)cc(C(=O)OCCC(C)(C)C)oc32)c1C [3,3-dimethyl-1-butyl ester of 7,8-dimethyl-5-hydroxy-quinolo[4,3-b]pyran-4-one-2-carboxylic acid, reference compound] yielded an inhibition in vivo at 30 mg/kg [2] of 26.5%.

With CCCC(C)COC(=O)c1cc(=O)c2c(O)nc3c(C)c(C)ccc3c2o1 (stereo not drawn) [2-methyl-1-pentyl ester of 7,8-dimethyl-5-hydroxy-quinolo[4,3-b]pyran-4-one-2-carboxylic acid] the inhibition in vivo at 30 mg/kg [2] was 97.9%, the “Percent inhibition (%)” value ([3]; period of time 10 min.) was 96.5% and the “Percent inhibition (%)” value ([3]; period of time 20 min.) was 98.5%. For the same compound, the “Percent inhibition (%)” value ([3]; period of time 30 min.) was 95.0%, the “Percent inhibition (%)” value ([3]; period of time 40 min.) was 93.0% and the “Percent inhibition (%)” value ([3]; period of time 1 hr.) was 92.5%. For the same compound, the “Percent inhibition (%)” value ([3]; period of time 2 hrs.) was 72.5%, the “Percent inhibition (%)” value ([3]; period of time 3 hrs.) was 61.5% and the “Percent inhibition (%)” value ([3]; period of time 4 hrs.) was 53.0%.
